Source: ChEMBL document CHEMBL5500393, “Discovery and Optimization of Novel SaFabI Inhibitors as Specific Therapeutic Agents for MRSA Infection” (J Med Chem, 2024)
Values after ≈ are worked out from the molar mass of the structure shown.

Key:
[1] = biological target: T1, Enoyl-[acyl-carrier-protein] reductase [NADPH] FabI (Staphylococcus aureus) (UniProt Q6GI75); assay: Inhibition of N-terminal his 6 tagged Staphylococcus aureus Fabi (1 to […] residues) expressed in Escherichia coli BL21 at 10 uM incubated for 30 mins in presence of NADPH by fluorescence based microplate reader analysis relative to control
T1 sequence (whole entry): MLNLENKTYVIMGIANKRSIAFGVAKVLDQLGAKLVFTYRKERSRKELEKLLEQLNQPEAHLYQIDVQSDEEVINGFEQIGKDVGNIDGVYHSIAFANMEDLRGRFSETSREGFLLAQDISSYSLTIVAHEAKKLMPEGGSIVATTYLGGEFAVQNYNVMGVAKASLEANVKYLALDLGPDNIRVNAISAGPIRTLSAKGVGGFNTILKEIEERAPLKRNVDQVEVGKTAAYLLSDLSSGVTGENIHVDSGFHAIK

[2] = biological target: T1, Enoyl-[acyl-carrier-protein] reductase [NADPH] FabI (Staphylococcus aureus); assay: Inhibition of N-terminal his 6 tagged Staphylococcus aureus Fabi (1 to […] residues) expressed in Escherichia coli BL21 at 1 uM incubated for 30 mins in presence of NADPH by fluorescence based microplate reader analysis relative to control
Staphylococcus aureus [3] = assay: Antimicrobial activity against […] Staphylococcus aureus ATCC33591 measured after 24 hrs by CLSI protocol based microdilution method; assay type: functional
Staphylococcus aureus [4] = assay: Antimicrobial activity against […] Staphylococcus aureus ATCC43300 measured after 24 hrs by CLSI protocol based microdilution method; assay type: functional
Staphylococcus aureus [5] = assay: Antimicrobial activity against […] Staphylococcus aureus USA300 measured after 24 hrs by CLSI protocol based microdilution method; assay type: functional
Staphylococcus aureus [6] = assay: Antimicrobial activity against […] Staphylococcus aureus NRS271 measured after 24 hrs by CLSI protocol based microdilution method; assay type: functional
Staphylococcus aureus [7] = assay: Antimicrobial activity against methicillin-susceptible Staphylococcus aureus ATCC29213 measured after 24 hrs by CLSI protocol based microdilution method; assay type: functional
Staphylococcus aureus [8] = assay: Antimicrobial activity against methicillin-susceptible Staphylococcus aureus ATCC25923 measured after 24 hrs by CLSI protocol based microdilution method; assay type: functional
Enterococcus faecium = assay: Antimicrobial activity against Enterococcus faecium ATCC19434 measured after 24 hrs by CLSI protocol based microdilution method; assay type: functional
Enterococcus faecalis = assay: Antimicrobial activity against Enterococcus faecalis ATCC29212 measured after 24 hrs by CLSI protocol based microdilution method; assay type: functional
Pseudomonas aeruginosa = assay: Antimicrobial activity against Pseudomonas aeruginosa PAO1 measured after 24 hrs by CLSI protocol based microdilution method; assay type: functional
Escherichia coli = assay: Antimicrobial activity against Escherichia coli ATCC25922 measured after 24 hrs by CLSI protocol based microdilution method; assay type: functional
Acinetobacter baumannii = assay: Antimicrobial activity against Acinetobacter baumannii ATCC19606 measured after 24 hrs by CLSI protocol based microdilution method; assay type: functional
Candida albicans = assay: Antimicrobial activity against Candida albicans SC5314 measured after 48 hrs by CLSI protocol based microdilution method; assay type: functional

SMILES | inhibition [1] [%] | inhibition [2] [%] | MIC (Staphylococcus aureus [3]) [µg/mL] | MIC (Staphylococcus aureus [4]) [µg/mL] | MIC (Staphylococcus aureus [5]) [µg/mL] | MIC (Staphylococcus aureus [6]) [µg/mL] | MIC (Staphylococcus aureus [7]) [µg/mL] | MIC (Staphylococcus aureus [8]) [µg/mL] | MIC (Enterococcus faecium) [µg/mL] | MIC (Enterococcus faecalis) [µg/mL] | MIC (Pseudomonas aeruginosa) [µg/mL] | MIC (Escherichia coli) [µg/mL] | MIC (Acinetobacter baumannii) [µg/mL] | MIC (Candida albicans) [µg/mL]
Cn1c(C2CC(=O)N(c3cccc(Br)c3OCC(F)(F)F)C2)nc2ccccc21 (stereo not given) | 18.8 | 2.1 | > 32 | > 32 | > 32 | > 32 | > 32 | > 32 | > 32 | > 32 | > 32 | > 32 | > 32 | > 32
Cc1cccc(NC(=O)c2cccc(NC(=O)c3nc4ccccc4n3C)c2)c1C | 5 | 3.7 | > 32 | > 32 | > 32 | > 32 | > 32 | > 32 | > 32 | > 32 | > 32 | > 32 | > 32 | > 32
O=C1CC(c2nc3ccccc3[nH]2)CN1c1cccc(Cl)c1F (stereo not given) | 16.9 | 1.7 | > 32 | > 32 | > 32 | > 32 | > 32 |  | > 32 | > 32 | > 32 | > 32 | > 32 | > 32
Cc1c(N)cccc1N1CC(c2nc3ccccc3n2C)CC1=O (stereo not given) | 50.2 | 6.1 | > 32 | > 32 | > 32 | > 32 | > 32 | > 32 | > 32 | > 32 | > 32 | > 32 | > 32 | > 32
Cn1c(C2CC(=O)N(c3cccc(-c4ccccc4)c3)C2)nc2ccccc21 (stereo not given) | 10.1 | 3.5 | > 32 | > 32 | > 32 | > 32 | > 32 | > 32 | > 32 | > 32 | > 32 | > 32 | > 32 | > 32
Cn1c(C2CC(=O)N(c3noc4ccccc34)C2)nc2ccccc21 (stereo not given) | 11.6 | 2.5 | > 32 | > 32 | > 32 | > 32 | > 32 | > 32 | > 32 | > 32 | > 32 | > 32 | > 32 | > 32
CC(=O)c1ccc(N2CC(c3nc4ccccc4n3C)CC2=O)cc1 (stereo not given) | 10.1 | 2.8 | > 32 | > 32 | > 32 | > 32 | > 32 | > 32 | > 32 | > 32 | > 32 | > 32 | > 32 | > 32
CN(C)c1ccc2nc3c(C(=O)O)cc(O)c(O)c3[o+]c2c1 | > 70 |  |  |  |  |  |  |  |  |  |  |  |  | 
Cn1c(CCC(=O)Nc2ccccc2)nc2ccccc21 | 7.8 | 7.7 | > 32 | > 32 | > 32 | > 32 | > 32 | > 32 | > 32 | > 32 | > 32 | > 32 | > 32 | > 32
Cc1cccc(N2CCC(c3nc4ccccc4n3C)CC2)c1C | 2 | 2.8 | > 32 | > 32 | > 32 | > 32 | > 32 | > 32 | > 32 | > 32 | > 32 | > 32 | > 32 | > 32
O=C(N/N=C/c1cc(O)c(O)cc1O)c1cc2ccccc2cc1O | > 70 |  |  |  |  |  |  |  |  |  |  |  |  | 
O=C1C=CC(=O)c2ccccc21 | > 70 |  |  |  |  |  |  |  |  |  |  |  |  | 
Cn1c(C2CC(=O)N(c3ccc4ccccc4c3)C2)nc2ccccc21 (stereo not given) | 51.7 | 2.8 | > 32 | > 32 | > 32 | > 32 | > 32 | > 32 | > 32 | > 32 | > 32 | > 32 | > 32 | > 32
Cn1c(CCC(=O)NCc2ccccc2)nc2ccccc21 | 6.1 | 7.9 | > 32 | > 32 | > 32 | > 32 | > 32 | > 32 | > 32 | > 32 | > 32 | > 32 | > 32 | > 32
Cn1c(C2CC(=O)N(c3ccccc3)C2)nc2ccccc21 (stereo not given) | 56.2 | 8.9 | > 32 | > 32 | > 32 | > 32 | > 32 | > 32 | > 32 | > 32 | > 32 | > 32 | > 32 | > 32
Cn1c(C(=O)NCc2ccccc2)nc2ccccc21 | 4.7 | 6.2 | > 32 | > 32 | > 32 | > 32 | > 32 | > 32 | > 32 | > 32 | > 32 | > 32 | > 32 | > 32
CCCCCC/C=C/CCCCCCCc1cccc(O)c1C(=O)O | > 70 |  |  |  |  |  |  |  |  |  |  |  |  | 
Cc1cccc(N2CCC(c3nc4ccccc4n3C)C2)c1C (stereo not given) | 6.2 | 5.4 | > 32 | > 32 | > 32 | > 32 | > 32 | > 32 | > 32 | > 32 | > 32 | > 32 | > 32 | > 32
Cn1c(C2CC(=O)N(c3ccccc3-c3ccccc3)C2)nc2ccccc21 (stereo not given) | 5.8 | 2.3 | > 32 | > 32 | > 32 | > 32 | > 32 | > 32 | > 32 | > 32 | > 32 | > 32 | > 32 | > 32
Cn1c(C2CC(=O)N(c3ccc4ncsc4c3)C2)nc2ccccc21 (stereo not given) | 43.4 | 4.1 | > 32 | > 32 | > 32 | > 32 | > 32 | > 32 | > 32 | > 32 | > 32 | > 32 | > 32 | > 32
Cn1c(C2CC(=O)N(C3CCCCC3)C2)nc2ccccc21 (stereo not given) | 43.7 | 3.2 | > 32 | > 32 | > 32 | > 32 | > 32 | > 32 | > 32 | > 32 | > 32 | > 32 | > 32 | > 32
Cc1c(Br)cccc1N1C[C@H](c2nc3ccccc3n2C)CC1=O |  |  | > 32 | > 32 | > 32 | > 32 | > 32 | > 32 |  |  |  |  |  | 
Cn1c(CCC(=O)NCCC(=O)NCc2ccccc2)nc2ccccc21 | 24.7 | 7.5 | > 32 | > 32 | > 32 | > 32 | > 32 | > 32 | > 32 | > 32 | > 32 | > 32 | > 32 | > 32
COCCCOc1ccc(C)c(C[S+]([O-])c2nc3ccccc3[nH]2)n1 (stereo not given) | > 70 |  |  |  |  |  |  |  |  |  |  |  |  | 
COc1cccc(OC)c1C(=O)N[C@@H]1C(=O)N2[C@@H]1SC(C)(C)[C@@H]2C(=O)O [METHICILLIN] |  |  | > 32 | > 32 | > 32 | > 32 | 2 (≈ 5.26 µM) | 2 (≈ 5.26 µM) |  |  |  |  |  | 
Oc1ccc2ccccc2c1SSc1c(O)ccc2ccccc12 | > 70 |  |  |  |  |  |  |  |  |  |  |  |  | 
O=c1sn(-c2cccc3ccccc23)c(=O)n1Cc1ccccc1 | > 70 |  |  |  |  |  |  |  |  |  |  |  |  | 
